The values below are quoted from earlier work in patent publication US11459499B2, “Amidoamine-based gemini surfactant containing ethoxylate units and a method for oil recovery” (King Fahd University of Petroleum and Minerals, priority 2018, dated 2022).

Where two headings read alike, the source gives them in different places.

Regarding `CCCCCCCCCCCC[N+](C)(C)C.[Br-]` [DTAB, dodecyltrimethylammonium bromide], the “reported CMC” value reads like this: (literature (Hoque et al., 2012)) 16.1 mM; (literature (Lu et al., 2012)) 5.0×10^−1 wt. %. As to `CCCCCCCCCCCC[N+](C)(C)CC[N+](C)(C)CCCCCCCCCCCC.[Br-].[Br-]` [12-2-12], the “reported CMC” value (literature (Lu et al., 2012)) is reported as “about 5.5×10^−2 wt. %”.
